Experimental data taken from ChEMBL document CHEMBL1201862, “PubChem BioAssay data set” (2004).
Calls of active or inactive are those of the source.

Legend:
[1] = biological target: Sphingosine 1-phosphate receptor 2 (Homo sapiens, UniProt O95136); assay: Dose Response Cell Based Assay for Antagonists of the S1P2 Receptor. [Related pubchem assays: 856, 736 ]; type: functional
[2] = biological target: T1, Heat shock factor protein 1 (Mus musculus, UniProt P38532); assay: decrease of HSF1-responsive luciferase luminescence – cell-based, NIH3T3, dose retest, confirmation (AID 2382); type: functional;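 note: NIH3T3 fibroblasts with HSF1-driven luciferase reporter stressed by proteasome inhibitor MG132; luminescence from HSF1-driven luciferase expression after 8 hours of MG132 stress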
T1 sequence (P38532 whole entry): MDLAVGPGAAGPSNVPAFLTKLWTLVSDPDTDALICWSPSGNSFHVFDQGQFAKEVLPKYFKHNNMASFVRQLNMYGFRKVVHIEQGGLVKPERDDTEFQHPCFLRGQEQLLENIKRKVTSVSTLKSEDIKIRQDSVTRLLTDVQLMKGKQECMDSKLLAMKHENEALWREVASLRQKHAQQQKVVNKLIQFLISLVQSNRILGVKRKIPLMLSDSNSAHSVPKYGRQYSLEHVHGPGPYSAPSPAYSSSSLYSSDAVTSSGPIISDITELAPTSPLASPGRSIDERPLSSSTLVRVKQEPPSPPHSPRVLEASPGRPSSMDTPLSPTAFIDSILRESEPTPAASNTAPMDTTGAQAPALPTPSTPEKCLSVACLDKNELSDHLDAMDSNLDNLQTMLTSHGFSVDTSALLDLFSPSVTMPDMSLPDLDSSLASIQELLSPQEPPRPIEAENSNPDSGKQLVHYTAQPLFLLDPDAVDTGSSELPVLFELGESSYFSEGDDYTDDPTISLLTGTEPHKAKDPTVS

[3] = biological target: T2, Microphthalmia-associated transcription factor (Homo sapiens, UniProt O75030); assay: reducers of TRPM1 reporter luminescence, concentration series – cell-based, SK-MEL-5, cherry-picked, set 3, MITF inhibitor project, dose response (AID 493073); type: functional;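 note: SK-MEL-5 melanoma cells with luciferase driven by the MITF target TRPM1 promoter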
T2 sequence (O75030 whole entry): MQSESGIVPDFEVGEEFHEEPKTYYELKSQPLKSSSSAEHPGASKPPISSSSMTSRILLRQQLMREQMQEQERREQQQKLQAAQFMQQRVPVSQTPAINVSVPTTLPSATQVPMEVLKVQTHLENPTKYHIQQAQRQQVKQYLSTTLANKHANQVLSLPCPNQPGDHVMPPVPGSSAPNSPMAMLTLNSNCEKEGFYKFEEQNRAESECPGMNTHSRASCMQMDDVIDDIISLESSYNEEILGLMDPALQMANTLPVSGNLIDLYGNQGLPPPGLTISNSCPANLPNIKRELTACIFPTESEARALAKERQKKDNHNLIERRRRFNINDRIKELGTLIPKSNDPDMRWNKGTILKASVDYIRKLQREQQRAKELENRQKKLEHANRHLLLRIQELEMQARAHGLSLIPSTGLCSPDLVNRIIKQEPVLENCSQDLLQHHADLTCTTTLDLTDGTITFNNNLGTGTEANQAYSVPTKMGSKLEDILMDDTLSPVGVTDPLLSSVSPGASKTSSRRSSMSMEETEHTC

[4] = biological target: Dual specificity tyrosine-phosphorylation-regulated kinase 1A (Rattus norvegicus, UniProt Q63470); type: biochemical, Homo sapiens
Interleukin-8 [5] = biological target: T3, Interleukin-8 (Homo sapiens, UniProt P10145); assay: Dose Response confirmation of uHTS small molecule hits for cystic fibrosis induced NFkb Inhibitors in a TNFa-induced IL8 counterscreen.; type: functional; conditions: read-out: IC50_Mean
T3 sequence (P10145 whole entry): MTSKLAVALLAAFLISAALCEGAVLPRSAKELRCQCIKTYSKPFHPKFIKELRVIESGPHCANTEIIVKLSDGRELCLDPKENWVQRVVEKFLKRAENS

Interleukin-8 [6] = biological target: T3, Interleukin-8; assay: Dose Response confirmation of uHTS small molecule hits for cystic fibrosis induced NFkb Inhibitors in a PAF-induced IL8 counterscreen.; type: functional; conditions: read-out: IC50_Mean
[7] = blockers of HIV-1 envelope-mediated cell-cell fusion – cherry-pick, dose response (AID 652057); type: functional, cell-based
[8] = viability loss in CEM21 cells – cell-based, CellTiter-Glo luminescence, cherry-picked, cytotoxicity control for viral fusion inhibitor project, dose response (AID 652042); type: functional;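 note: potency for signal decrease meaning cytotoxicity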
[9] = blockers of HIV-1 ZM109 envelope-driven cell-cell fusion – HeLa effector, CEM target cells, luciferase, cherry-pick, dose response (AID 652058); type: functional, cell-based;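 note: luciferase signal from HIV-1 Env mediated cell-cell fusion of effector and target cells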
[10] = off-target signal loss in HeLa-CEM21 co-culture – HeLa F-luc CTL cells, cherry-picked, counter-screen for HIV-1 Env fusion inhibitor project, dose response (AID 652040); type: functional, cell-based;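 note: potency for signal decrease marking cytotoxic or nonspecific inhibition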
[11] = HIV-1 AD8 envelope cell-cell fusion blockers – cherry-pick, dose response (AID 652062); type: functional, cell-based;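 note: luciferase signal from cell-cell fusion driven by HIV-1 clade B AD8 Env; potency is for inhibitors of fusion seen as a drop in luminescence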
Cytochrome P450 3A4 = Cytochrome P450 3A4 (Homo sapiens, UniProt P08684);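 note: CYP3A4 tested as one member of a cytochrome P450 panel screen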
[12] = bead-based luminescence quenchers, dual-tagged ARNT – biochemical, AlphaScreen, cherry-pick, artefact control for ARNT-TACC3 interaction inhibitor project, dose response (AID 651705); type: functional;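 note: AlphaScreen bead proximity signal that flags compounds interfering with the detection technology; potency reflects signal decrease which marks the compound as an assay artifact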
[13] = biological target: T1, Heat shock factor protein 1; assay: enhancement of HSF1-driven luciferase signal – cell-based, NIH3T3, luminescence, dose retest, confirmation (AID 435004); type: functional;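 note: stress induced by proteasome inhibitor MG132 added 30 min after compound; luciferase reporter driven by HSF1 response element in NIH3T3 cells; actives raise luminescence as potentiators of the MG132 stress response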
[14] = biological target: T4, Replicative DNA helicase DnaB (Mycobacterium tuberculosis, UniProt P9WMR3); assay: DnaB intein splicing inhibitors, dose response, biochemical, cell-free fluorescence (AID 449749); type: functional
T4 sequence (P9WMR3 whole entry): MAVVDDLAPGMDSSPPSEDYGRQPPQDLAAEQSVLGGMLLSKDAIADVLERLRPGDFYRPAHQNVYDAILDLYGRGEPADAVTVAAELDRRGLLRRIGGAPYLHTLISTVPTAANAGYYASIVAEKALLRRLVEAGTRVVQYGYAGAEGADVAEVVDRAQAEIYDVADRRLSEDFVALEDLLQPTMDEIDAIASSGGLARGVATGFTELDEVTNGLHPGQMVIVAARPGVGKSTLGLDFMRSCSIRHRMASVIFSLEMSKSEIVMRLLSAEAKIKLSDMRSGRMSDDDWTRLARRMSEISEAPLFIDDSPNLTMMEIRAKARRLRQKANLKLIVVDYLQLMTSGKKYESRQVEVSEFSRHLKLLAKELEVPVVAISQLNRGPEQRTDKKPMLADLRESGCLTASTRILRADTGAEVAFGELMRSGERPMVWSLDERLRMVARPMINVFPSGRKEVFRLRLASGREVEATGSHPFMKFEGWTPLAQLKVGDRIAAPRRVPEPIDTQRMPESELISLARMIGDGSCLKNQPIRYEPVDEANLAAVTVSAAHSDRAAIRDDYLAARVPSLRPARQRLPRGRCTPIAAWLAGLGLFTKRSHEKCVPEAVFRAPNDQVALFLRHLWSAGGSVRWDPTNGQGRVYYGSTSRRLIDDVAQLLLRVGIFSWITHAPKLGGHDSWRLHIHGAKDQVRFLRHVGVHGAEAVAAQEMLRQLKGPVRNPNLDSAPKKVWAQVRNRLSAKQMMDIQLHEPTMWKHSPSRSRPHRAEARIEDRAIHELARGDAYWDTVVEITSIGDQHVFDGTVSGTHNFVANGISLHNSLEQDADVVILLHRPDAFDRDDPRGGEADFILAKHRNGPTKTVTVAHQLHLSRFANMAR

Protein RecA = biological target: T5, Protein RecA (Mycobacterium tuberculosis, UniProt P9WHJ3); assay: Fluorescence Cell-Free Homogeneous Dose Retest to Identify Inhibitors of RecA-Intein Splicing Activity. [Related pubchem assays (depositor defined):AID2097, AID2223, AID489010, AID492950]; type: functional
T5 sequence (P9WHJ3 whole entry): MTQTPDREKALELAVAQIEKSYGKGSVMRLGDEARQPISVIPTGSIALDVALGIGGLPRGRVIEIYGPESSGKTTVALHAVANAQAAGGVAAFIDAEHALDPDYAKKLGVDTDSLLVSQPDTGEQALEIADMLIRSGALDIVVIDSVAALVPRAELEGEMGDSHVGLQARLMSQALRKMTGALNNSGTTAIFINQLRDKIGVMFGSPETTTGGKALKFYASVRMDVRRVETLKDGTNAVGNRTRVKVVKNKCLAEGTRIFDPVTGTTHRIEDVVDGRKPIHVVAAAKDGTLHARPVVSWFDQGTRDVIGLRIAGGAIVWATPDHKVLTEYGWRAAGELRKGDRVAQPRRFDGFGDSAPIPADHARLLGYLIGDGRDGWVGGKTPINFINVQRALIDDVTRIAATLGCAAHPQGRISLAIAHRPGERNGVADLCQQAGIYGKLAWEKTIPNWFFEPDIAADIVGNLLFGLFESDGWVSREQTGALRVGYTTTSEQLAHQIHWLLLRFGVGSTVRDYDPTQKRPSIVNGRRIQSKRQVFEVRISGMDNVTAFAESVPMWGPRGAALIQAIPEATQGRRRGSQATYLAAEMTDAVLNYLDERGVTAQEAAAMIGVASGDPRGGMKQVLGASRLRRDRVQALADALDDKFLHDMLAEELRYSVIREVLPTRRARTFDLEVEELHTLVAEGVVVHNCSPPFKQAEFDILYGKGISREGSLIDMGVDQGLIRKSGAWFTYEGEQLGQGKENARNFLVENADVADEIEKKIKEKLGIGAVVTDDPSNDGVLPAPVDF

[15] = biological target: Hepatocyte nuclear factor 4-alpha (Homo sapiens, UniProt P41235); type: functional, cell-based;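 note: biochemical luminescence-based dose-response counterscreen measuring inhibition of HNF4 dimerization, run alongside a screen for blockers of ABHD5–perilipin-5 interaction; split luciferase complementation of HNF4 fusion proteins in cell lysate measuring dimerization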
[16] = biological target: T6, Corticotropin-releasing factor receptor 2/Corticotropin-releasing factor-binding protein (Homo sapiens, UniProt P24387+Q13324); assay: Dose Response confirmation of uHTS hits for small molecule antagonists of the CRF-binding protein and CRF-R2 receptor complex.; type: functional; conditions: read-out: IC50_Mean
T6 sequence (Q13324 whole entry): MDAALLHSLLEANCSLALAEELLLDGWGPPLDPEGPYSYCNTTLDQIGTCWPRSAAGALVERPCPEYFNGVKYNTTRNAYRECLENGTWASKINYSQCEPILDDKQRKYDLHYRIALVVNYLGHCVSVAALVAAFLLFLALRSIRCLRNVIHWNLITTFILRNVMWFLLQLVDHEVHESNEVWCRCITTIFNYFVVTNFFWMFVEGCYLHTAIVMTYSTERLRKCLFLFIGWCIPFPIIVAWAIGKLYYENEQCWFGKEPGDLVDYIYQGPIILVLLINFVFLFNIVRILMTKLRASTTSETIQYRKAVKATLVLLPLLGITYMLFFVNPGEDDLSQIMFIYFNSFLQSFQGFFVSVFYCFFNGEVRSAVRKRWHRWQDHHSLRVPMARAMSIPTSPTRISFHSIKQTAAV
T6 sequence (P24387 whole entry): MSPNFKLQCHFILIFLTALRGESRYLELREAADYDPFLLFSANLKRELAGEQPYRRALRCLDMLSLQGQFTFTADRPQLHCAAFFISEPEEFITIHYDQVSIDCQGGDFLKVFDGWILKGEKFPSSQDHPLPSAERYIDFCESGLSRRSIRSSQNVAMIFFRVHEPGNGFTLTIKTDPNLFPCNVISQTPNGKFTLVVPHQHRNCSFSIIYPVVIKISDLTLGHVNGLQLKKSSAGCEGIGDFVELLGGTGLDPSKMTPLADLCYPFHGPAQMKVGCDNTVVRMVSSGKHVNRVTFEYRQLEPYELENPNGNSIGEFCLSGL

[17] = biological target: T6, Corticotropin-releasing factor receptor 2/Corticotropin-releasing factor-binding protein; assay: activators of CRF receptor 2 with binding protein – uHTS hits, confirmation (AID 602473); type: functional; conditions: read-out: EC50_Mean
[18] = blockers of CRF-binding protein–CRF-R2 complex – cell-based, uHTS hits, 384-well, dose response (AID 651639); type: functional, Homo sapiens; conditions: read-out: IC50_Mean
[19] = biological target: Photoreceptor-specific nuclear receptor (Homo sapiens, UniProt Q9Y5X4); type: functional, cell-based;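 note: CHO-S cells with Gal4-NCOR and VP16-NR2E3 two-hybrid luciferase reporter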
H9c2 = assay: cells; type: functional, cell-based; conditions: Rattus norvegicus, H9c2, Myocardium
[20] = biological target: T7, ATP-dependent translocase ABCB1 (Homo sapiens, UniProt P08183); assay: inhibition of BCRP-mediated JC-1 efflux – Ig-MXP3 cells, flow cytometry, set 2, dose response (AID 504566); type: functional; conditions: read-out: EC50_MICROM_;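 note: flow cytometry median green fluorescence of retained JC-1 dye; potency of efflux pump inhibition measured as rising substrate retention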
[21] = biological target: T7, ATP-dependent translocase ABCB1; assay: P-gp JC-1 efflux blockade concentration-response – Jurkat-DNR cells, flow cytometry, set 2, dose response (AID 504569); type: functional; conditions: read-out: EC50_MICROM_;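 note: potency of pump inhibitors that raise cellular JC-1 green fluorescence up to the nicardipine level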
[22] = biological target: Mitochondrial peptide methionine sulfoxide reductase (Bos taurus, UniProt P54149); type: functional;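 note: absorbance read-out, biochemical high-throughput dose-response screen for MsrA inhibitors, confirmatory; recombinant bovine MsrA coupled to E. coli TrxB with NADPH and selenocystamine; potency is for inhibitors of MsrA activity on DMSO substrate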
Sequence of Mitochondrial peptide methionine sulfoxide reductase (P54149 whole entry): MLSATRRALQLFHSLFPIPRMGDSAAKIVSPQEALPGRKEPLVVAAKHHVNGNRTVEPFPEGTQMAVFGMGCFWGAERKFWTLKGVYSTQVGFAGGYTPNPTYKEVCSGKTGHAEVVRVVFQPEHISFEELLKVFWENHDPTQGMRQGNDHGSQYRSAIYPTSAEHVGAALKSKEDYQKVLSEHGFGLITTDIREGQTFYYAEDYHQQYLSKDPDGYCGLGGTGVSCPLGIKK

T7 sequence (P08183 whole entry): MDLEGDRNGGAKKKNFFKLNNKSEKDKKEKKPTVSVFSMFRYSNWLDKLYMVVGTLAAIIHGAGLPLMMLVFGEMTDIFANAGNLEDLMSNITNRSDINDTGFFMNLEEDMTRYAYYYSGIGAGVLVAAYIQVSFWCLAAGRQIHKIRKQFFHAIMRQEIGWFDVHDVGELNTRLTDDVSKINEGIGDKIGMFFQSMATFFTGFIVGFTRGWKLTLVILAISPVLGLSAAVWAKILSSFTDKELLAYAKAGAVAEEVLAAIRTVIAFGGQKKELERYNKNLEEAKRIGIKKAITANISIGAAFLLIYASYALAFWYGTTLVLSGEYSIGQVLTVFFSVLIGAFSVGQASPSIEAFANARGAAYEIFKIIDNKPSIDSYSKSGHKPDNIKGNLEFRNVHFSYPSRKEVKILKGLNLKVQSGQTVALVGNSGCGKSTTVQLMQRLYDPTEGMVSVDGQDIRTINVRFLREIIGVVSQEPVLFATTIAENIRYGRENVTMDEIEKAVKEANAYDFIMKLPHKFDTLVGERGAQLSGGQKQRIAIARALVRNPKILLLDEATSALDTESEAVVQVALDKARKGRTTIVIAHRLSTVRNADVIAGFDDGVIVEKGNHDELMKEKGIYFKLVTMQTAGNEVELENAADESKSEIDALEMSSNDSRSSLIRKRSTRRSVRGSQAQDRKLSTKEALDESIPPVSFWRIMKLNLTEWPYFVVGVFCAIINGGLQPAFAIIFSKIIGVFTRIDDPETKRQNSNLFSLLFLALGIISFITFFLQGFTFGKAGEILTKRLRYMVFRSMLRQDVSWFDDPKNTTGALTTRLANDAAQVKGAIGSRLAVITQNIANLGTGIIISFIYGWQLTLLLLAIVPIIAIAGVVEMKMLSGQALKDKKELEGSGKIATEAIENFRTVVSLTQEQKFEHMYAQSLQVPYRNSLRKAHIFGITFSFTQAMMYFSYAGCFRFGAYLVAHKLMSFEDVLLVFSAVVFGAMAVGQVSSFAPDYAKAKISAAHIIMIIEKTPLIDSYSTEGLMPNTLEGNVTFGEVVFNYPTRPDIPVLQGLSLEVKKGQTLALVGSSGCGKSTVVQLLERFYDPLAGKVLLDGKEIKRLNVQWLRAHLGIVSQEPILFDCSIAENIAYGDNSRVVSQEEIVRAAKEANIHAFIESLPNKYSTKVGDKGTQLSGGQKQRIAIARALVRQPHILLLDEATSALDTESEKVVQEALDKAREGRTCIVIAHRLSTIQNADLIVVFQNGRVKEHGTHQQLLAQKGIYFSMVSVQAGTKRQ
Sequence of Sphingosine 1-phosphate receptor 2 (O95136 whole entry): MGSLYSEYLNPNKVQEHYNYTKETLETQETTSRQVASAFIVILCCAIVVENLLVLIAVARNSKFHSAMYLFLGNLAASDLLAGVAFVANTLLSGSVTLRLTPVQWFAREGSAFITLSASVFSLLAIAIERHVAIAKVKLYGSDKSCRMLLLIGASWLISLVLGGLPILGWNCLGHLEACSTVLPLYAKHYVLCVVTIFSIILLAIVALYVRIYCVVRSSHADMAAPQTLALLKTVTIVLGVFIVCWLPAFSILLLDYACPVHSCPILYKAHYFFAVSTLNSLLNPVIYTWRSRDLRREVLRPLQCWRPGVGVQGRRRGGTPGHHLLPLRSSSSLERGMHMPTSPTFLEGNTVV
Sequence of Photoreceptor-specific nuclear receptor (Q9Y5X4 whole entry, the tested form may be a part): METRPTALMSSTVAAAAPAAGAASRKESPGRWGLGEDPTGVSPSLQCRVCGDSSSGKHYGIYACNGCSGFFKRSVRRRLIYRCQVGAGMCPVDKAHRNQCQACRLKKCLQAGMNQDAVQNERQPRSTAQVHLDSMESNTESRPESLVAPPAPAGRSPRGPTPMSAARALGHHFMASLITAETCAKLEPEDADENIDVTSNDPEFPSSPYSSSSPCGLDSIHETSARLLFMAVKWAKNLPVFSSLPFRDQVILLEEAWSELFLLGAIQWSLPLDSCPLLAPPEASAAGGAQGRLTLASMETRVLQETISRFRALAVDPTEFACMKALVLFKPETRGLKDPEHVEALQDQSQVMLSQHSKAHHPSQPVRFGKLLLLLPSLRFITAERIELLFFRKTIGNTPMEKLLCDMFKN
Sequence of Cytochrome P450 3A4 (P08684 whole entry): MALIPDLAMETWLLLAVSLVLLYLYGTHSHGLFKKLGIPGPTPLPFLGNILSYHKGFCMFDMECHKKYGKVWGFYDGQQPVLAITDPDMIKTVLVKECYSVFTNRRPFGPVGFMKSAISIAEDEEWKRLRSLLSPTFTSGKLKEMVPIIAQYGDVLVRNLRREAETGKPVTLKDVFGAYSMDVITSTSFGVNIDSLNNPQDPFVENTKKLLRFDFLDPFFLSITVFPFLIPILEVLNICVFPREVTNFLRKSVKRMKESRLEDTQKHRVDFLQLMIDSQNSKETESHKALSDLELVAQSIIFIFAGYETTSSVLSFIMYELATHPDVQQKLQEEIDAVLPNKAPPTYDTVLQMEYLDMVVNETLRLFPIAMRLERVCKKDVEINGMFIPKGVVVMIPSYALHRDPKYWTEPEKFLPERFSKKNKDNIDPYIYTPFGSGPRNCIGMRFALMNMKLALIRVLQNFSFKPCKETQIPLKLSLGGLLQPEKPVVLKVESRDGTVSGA
Sequence of Hepatocyte nuclear factor 4-alpha (P41235 whole entry, the tested form may be a part): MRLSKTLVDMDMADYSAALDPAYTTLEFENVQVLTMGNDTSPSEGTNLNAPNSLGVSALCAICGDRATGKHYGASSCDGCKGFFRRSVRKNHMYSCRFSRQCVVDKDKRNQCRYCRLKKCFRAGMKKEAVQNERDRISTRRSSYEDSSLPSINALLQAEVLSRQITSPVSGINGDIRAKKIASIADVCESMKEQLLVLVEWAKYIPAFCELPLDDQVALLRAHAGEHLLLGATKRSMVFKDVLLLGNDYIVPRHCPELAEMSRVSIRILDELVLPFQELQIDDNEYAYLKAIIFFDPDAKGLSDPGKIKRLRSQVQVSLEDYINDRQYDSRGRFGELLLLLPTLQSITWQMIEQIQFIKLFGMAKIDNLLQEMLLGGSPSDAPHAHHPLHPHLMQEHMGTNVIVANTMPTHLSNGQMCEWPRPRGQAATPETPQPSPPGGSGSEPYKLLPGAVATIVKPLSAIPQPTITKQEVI

## COc1cccc(-c2nnc3n2N=C(C(C)(C)C)CS3)c1
[1]
  IC50: 3.31 µM (active)
[2]
  EC50: 2.96 µM (active)
[3]
  AC50: 4.82 µM (active)
[4]
  AC50: 8.72 µM (active)
Interleukin-8 [5]
  IC50: 42.4 µM (inactive)
Interleukin-8 [6]
  IC50: 4.14 µM (active)
[7]
  AC50: 1.25 µM (active)
[8]
  AC50: 8.58 µM (active)
[9]
  AC50: 0.976 µM (active)
[10]
  AC50: 2.95 µM (active)
[11]
  AC50: 2.3 µM (active)
Cytochrome P450 3A4
  AC50: 25.1 µM (inconclusive)

## O=C(CSc1cccc2cccnc12)Nc1ccccc1F
[12]
  AC50: 90.5 µM (active)

## N#Cc1ncc(Cc2ccccc2)nc1C#N
[13]
  EC50: 18.1 µM (active)
[14]
  AC50: 2.42 µM (active)
Protein RecA
  EC50: 1.71 µM (active)
[15]
  IC50: 18.1 µM (inactive)

## CN(CCOc1ccc(Cl)cc1)C(=O)C1CCN(C(=O)c2ccc(Cl)cc2)CC1
[16]
  IC50: < 0.368 µM (active)
[17]
  EC50: > 53 µM (inactive)
[18]
  IC50: > 20 µM (inactive)

## O=C(O)CC1(CC(=O)Nc2cc(C(F)(F)F)cc(C(F)(F)F)c2)CCCCC1
[19]
  IC50: 2.23 µM (active)

## COc1ccc(-c2cc3nc(-c4ccccc4)cc(N4CCN(C(C)=O)CC4)n3n2)cc1
H9c2
  IC50: > 79 µM (inactive)
[20]
  EC50: 1.47 µM (active)
[21]
  EC50: 1.94 µM (active)

## O=[N+]([O-])c1cccc(/C=N/n2c(S)nnc2C2CCCCC2)c1
[22]
  IC50: 155 µM (inactive)
